# Measurements reported in US10399989B2, “Pyrazolopyrimidine derivatives as BTK inhibitors for the treatment of cancer” (Loxo Oncology, Inc., priority 2016, dated 2019).
# Read-outs that look alike come from different tables or passages of the source.
# Legend:
# [1] = system: OCI-Ly10 human DLBCL cells; assay: OCI-Ly10 anti-proliferative activity (Resazurin, 72 h); assay type: cell-based; conditions: read-out: Proliferation OCI-Ly10-IC50
# Method: Compounds were assayed for effects on the growth of OCI-Ly10 human DLBCL cells that are dependent on NFκB signalling. OCI-Ly10 cells were grown in suspension in T225 flasks, centrifuged and re-suspended in 2.5% FBS containing media. Cells were then plated at 7.5×10^3 cells per well in 96-well plates in varying concentrations of compound and incubated for 72 h at 37° C. An additional plate of cells to be used as the Day 0 read was seeded without compound addition, Resazurin was added to each well, incubated for 5 h and the fluorescence measured at 590 nm. After 72 h of compound treatment, Resazurin was added to each well of the compound treated plates, incubated for 5 h and the fluorescence measured at 590 nm. The IC50 was then calculated by subtracting the average Day 0 value from each well value from the treated plates, each treatment was then calculated as a percentage of the DMSO control and the percentages plotted against the inhibitor concentration to estimate the IC50 from log [Inhibitor] vs response using the Variable Slope model in Graphpad prism from Graphpad software (SanDiego, Calif.).
# [2] = biological target: BTK^C481S (Homo sapiens (Human), UniProt Q06187, C481S); assay: BTK^C481S binding affinity (TR-FRET, LanthaScreen); conditions: 5 h incubation
# Chain of BTK^C481S (Q06187 whole entry C481S): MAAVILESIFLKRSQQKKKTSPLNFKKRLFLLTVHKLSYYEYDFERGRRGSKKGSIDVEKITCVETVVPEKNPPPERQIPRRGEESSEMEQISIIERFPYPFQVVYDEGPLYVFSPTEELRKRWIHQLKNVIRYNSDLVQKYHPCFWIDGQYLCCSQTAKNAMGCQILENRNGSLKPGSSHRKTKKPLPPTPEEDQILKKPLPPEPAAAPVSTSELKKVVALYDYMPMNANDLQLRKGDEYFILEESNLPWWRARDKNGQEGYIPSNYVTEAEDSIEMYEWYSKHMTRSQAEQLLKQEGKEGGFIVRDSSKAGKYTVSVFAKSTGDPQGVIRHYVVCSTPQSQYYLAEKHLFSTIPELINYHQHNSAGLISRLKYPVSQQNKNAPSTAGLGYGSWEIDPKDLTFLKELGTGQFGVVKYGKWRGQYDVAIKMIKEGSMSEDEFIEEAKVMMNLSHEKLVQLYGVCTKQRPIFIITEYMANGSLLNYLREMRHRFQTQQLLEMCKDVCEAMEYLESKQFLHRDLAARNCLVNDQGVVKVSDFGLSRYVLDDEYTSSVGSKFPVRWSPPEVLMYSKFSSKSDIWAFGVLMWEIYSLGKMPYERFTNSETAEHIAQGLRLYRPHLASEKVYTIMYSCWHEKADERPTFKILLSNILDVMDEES
# Method: (§1) BTK^C481S binding affinity of each compound tested was determined using a time-resolved fluorescence resonance energy transfer (TR-FRET) methodology. 5 nM Recombinant […] kinase, varying concentrations of inhibitor, 2 nM LanthaScreen™ Eu anti-His Antibody and 30 nM Kinase Tracer 236 was incubated in 1× LanthaScreen™ Kinase Buffer A for 5 h. Recombinant BTK^C481S kinase was purchased from SignalChem and all LanthaScreen™ components were purchased from Invitrogen. Measurements were performed in a reaction volume of 30 μL using half-area 96-well assay plates. The TR-FRET signal was read on a plate reader with an excitation wavelength of 340 nm and detection wavelengths of 615 and 665 nm. Binding affinity was determined for each compound by measuring TR-FRET signal at various concentrations of compound and plotting the relative fluorescence units against the inhibitor concentration to estimate the IC50 from log [Inhibitor] vs response using the Variable Slope model in Graphpad prism from Graphpad software (SanDiego, Calif.).
# [3] = biological target: EGFR (Homo sapiens (Human), UniProt P00533); assay: EGFR binding affinity (TR-FRET, LanthaScreen); conditions: 5 h incubation
# Chain of EGFR (P00533 25-1210): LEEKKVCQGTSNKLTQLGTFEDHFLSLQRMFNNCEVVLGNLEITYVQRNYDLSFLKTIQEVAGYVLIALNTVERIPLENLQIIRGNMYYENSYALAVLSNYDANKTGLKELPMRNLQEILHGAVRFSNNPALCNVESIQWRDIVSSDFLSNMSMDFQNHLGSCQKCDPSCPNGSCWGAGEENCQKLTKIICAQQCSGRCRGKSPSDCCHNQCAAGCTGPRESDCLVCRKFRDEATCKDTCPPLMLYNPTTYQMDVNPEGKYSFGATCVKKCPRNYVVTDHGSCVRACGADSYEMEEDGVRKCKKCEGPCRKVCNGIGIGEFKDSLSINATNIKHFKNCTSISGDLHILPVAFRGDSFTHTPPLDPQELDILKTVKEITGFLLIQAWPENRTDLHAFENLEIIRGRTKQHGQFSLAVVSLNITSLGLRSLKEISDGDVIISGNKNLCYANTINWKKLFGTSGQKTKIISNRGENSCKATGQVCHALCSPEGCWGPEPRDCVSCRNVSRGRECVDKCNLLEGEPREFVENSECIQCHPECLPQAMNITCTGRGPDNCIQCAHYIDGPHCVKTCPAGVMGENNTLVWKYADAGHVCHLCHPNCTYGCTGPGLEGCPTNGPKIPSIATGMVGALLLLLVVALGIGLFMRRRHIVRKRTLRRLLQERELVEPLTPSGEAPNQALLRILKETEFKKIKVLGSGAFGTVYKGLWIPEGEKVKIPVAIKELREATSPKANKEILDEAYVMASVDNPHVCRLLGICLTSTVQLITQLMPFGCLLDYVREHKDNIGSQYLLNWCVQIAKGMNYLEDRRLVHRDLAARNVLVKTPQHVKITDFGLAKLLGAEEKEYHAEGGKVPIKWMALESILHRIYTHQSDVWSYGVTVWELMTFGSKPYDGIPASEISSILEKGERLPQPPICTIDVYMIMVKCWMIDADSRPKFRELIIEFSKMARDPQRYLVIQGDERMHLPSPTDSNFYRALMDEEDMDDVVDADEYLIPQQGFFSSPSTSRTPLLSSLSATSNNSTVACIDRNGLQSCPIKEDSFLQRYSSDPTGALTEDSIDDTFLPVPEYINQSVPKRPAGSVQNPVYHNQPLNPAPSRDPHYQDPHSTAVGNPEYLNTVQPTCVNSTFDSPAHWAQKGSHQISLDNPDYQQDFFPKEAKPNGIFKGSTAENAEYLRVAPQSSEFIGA
# Method: EGFR binding affinity was determined using a time-resolved fluorescence resonance energy transfer (TR-FRET) methodology. 2.5 nM Recombinant EGFR, varying concentrations of inhibitor, 2 nM LanthaScreen™ Eu anti-GST Antibody and 3 nM Kinase Tracer 199 was incubated in 1× LanthaScreen™ Kinase Buffer A for 5 h. Recombinant EGFR and all LanthaScreen™ components were purchased from Invitrogen. Measurements were performed in a reaction volume of 30 μL using half-area 96-well assay plates. The TR-FRET signal was read on a plate reader with an excitation wavelength of 340 nm and detection wavelengths of 615 and 665 nm. Binding affinity was determined for each compound by measuring TR-FRET signal at various concentrations of compound and plotting the relative fluorescence units against the inhibitor concentration to estimate the IC50 from log [Inhibitor] vs response using the Variable Slope model in Graphpad prism from Graphpad software (SanDiego, Calif.).
# [4] = biological target: BTK^WT (Homo sapiens (Human), UniProt Q06187); assay: BTK^WT binding affinity (TR-FRET, LanthaScreen)
# Chain of BTK^WT (Q06187 whole entry): as the sequence (Q06187 whole entry C481S) above, with S481C counted along it
# Method: as §1, with “BTK^WT binding” for “BTK^C481S binding”, “methodology. 2.5” for “methodology. 5”, “and 15” for “and 30”, “Recombinant BTK” for “Recombinant BTK^C481S”, “kinase” for “kinase was purchased from SignalChem”
# [5] = TR-FRET binding, 5 h incubation, read-out: BTK^WT IC50
# [6] = Table 6, numeric values, read-out: BTK Binding IC50
Compound,IC50 [1],IC50 [2],IC50 [3],"IC50 [4, 5]","IC50 ([1]; Homo sapiens, OCI-Ly10, 72 h)","IC50 [4, 6]"
"COc1ccccc1C(=O)NCc1ccc(-c2nn(C3CCC(C)(O)CC3)c3ncnc(N)c23)cc1 (single isomer, unassigned) [Example 91, N-[[4-[4-amino-1-(4-hydroxy-4-methyl-cyclohexyl)pyrazolo[3,4-d]pyrimidin-3-yl]phenyl]methyl]-2-methoxy-benzamide]",100 to 1000 nM,≤ 10 nM,100 to 1000 nM,≤ 10 nM,–,–
"COc1ccc(C)cc1C(=O)NCc1ccc(-c2nn(C3CCCC3)c3ncnc(N)c23)cc1F [Example 65, N-[[4-(4-amino-1-cyclopentyl-pyrazolo[3,4-d]pyrimidin-3-yl)-2-fluoro-phenyl]methyl]-2-methoxy-5-methyl-benzamide]",–,≤ 10 nM,1000 to 10000 nM,≤ 10 nM,100 to 1000 nM,–
"COc1ccccc1C(=O)NCc1ccc(-c2nn([C@H]3C=C[C@H](O)C3)c3ncnc(N)c23)cc1 [Example 36, N-[[4-[4-amino-1-[(1R,4R)-4-hydroxycyclopent-2-en-1-yl]pyrazolo[3,4-d]pyrimidin-3-yl]phenyl]methyl]-2-methoxy-benzamide]",–,≤ 10 nM,100 to 1000 nM,≤ 10 nM,100 to 1000 nM,–
"COc1ccccc1C(=O)NCc1ccc(-c2nn(C3CCCC3)c3ncnc(N)c23)cc1C [Example 89, N-[[4-(4-Amino-1-cyclopentyl-pyrazolo[3,4-d]pyrimidin-3-yl)-2-methyl-phenyl]methyl]-2-methoxy-benzamide]",–,≤ 10 nM,100 to 1000 nM,≤ 10 nM,100 to 1000 nM,–
"CC(C)Oc1ccccc1C(=O)NCc1ccc(-c2nn(C3CCCC3)c3ncnc(N)c23)cc1 [Example 8, N-[[4-(4-amino-1-cyclopentyl-pyrazolo[3,4-d]pyrimidin-3-yl)phenyl]methyl]-2-isopropoxy-benzamide]",–,≤ 10 nM,1000 to 10000 nM,10 to 100 nM,1000 to 10000 nM,–
"COc1ccccc1C(=O)NCc1ccc(-c2nn(CC(C)C)c3ncnc(N)c23)cc1 [Example 76, N-[[4-(4-amino-1-isobutyl-pyrazolo[3,4-d]pyrimidin-3-yl)phenyl]methyl]-2-methoxy-benzamide]",–,≤ 10 nM,100 to 1000 nM,≤ 10 nM,100 to 1000 nM,–
"COc1ccccc1C(=O)NCc1ccc(-c2nn(C3CCCC(C(=O)N(C)C)C3)c3ncnc(N)c23)cc1 (stereo not drawn) [Example 42, N-[[4-[4-amino-1-[3-(dimethylcarbamoyl)cyclohexyl]pyrazolo[3,4-d]pyrimidin-3-yl]phenyl]methyl]-2-methoxy-benzamide]",–,≤ 10 nM,1000 to 10000 nM,≤ 10 nM,100 to 1000 nM,–
"COc1ccccc1C(=O)NCc1ccc(-c2nn(C3CCC(C)C3)c3ncnc(N)c23)cc1 (stereo not drawn) [Example 62, N-[[4-[4-amino-1-(3-methylcyclopentyl)pyrazolo[3,4-d]pyrimidin-3-yl]phenyl]methyl]-2-methoxy-benzamide]",–,≤ 10 nM,100 to 1000 nM,≤ 10 nM,10 to 100 nM,–
"COc1ccccc1C(=O)NCc1ccc(-c2nn([C@@H]3C=C[C@H](O)C3)c3ncnc(N)c23)cc1 [Example 44, N-[[4-[4-amino-1-[(1S,4R)-4-hydroxycyclopent-2-en-1-yl]pyrazolo[3,4-d]pyrimidin-3-yl]phenyl]methyl]-2-methoxy-benzamide]",–,≤ 10 nM,1000 to 10000 nM,≤ 10 nM,100 to 1000 nM,–
"Nc1ncnc2c1c(-c1ccc(CNC(=O)c3cccc4cccnc34)cc1)nn2C1CCCC1 [Example 70, N-[[4-(4-amino-1-cyclopentyl-pyrazolo[3,4-d]pyrimidin-3-yl)phenyl]methyl]quinoline-8-carboxamide]",–,≤ 10 nM,100 to 1000 nM,≤ 10 nM,100 to 1000 nM,–
"COc1ccccc1C(=O)NCc1ccc(-c2nn(C3CCCC3)c3ncnc(N)c23)c(OC)c1 [Example 77, N-[[4-(4-Amino-1-cyclopentyl-pyrazolo[3,4-d]pyrimidin-3-yl)-3-methoxy-phenyl]methyl]-2-methoxy-benzamide]",–,≤ 10 nM,> 10000 nM,≤ 10 nM,10 to 100 nM,–
"COc1ccccc1C(=O)NCc1ccc(-c2nn(C3CC4CC4C3)c3ncnc(N)c23)cc1 (stereo not drawn) [Example 52, N-[[4-[4-amino-1-(3-bicyclo[3.1.0]hexanyl)pyrazolo[3,4-d]pyrimidin-3-yl]phenyl]methyl]-2-methoxy-benzamide]",–,≤ 10 nM,10 to 100 nM,≤ 10 nM,10 to 100 nM,–
"COc1ccccc1C(=O)NCc1ccc(-c2nn(C3CCC(=O)C3)c3ncnc(N)c23)cc1 (stereo not drawn) [Example 21, N-[[4-[4-amino-1-(3-oxocyclopentyl)pyrazolo[3,4-d]pyrimidin-3-yl]phenyl]methyl]-2-methoxy-benzamide]",–,≤ 10 nM,1000 to 10000 nM,≤ 10 nM,100 to 1000 nM,–

# Now from value to compound:
IC50 [1],IC50 [2],IC50 [3],"IC50 [4, 5]","IC50 ([1]; Homo sapiens, OCI-Ly10, 72 h)","IC50 [4, 6]",Compound
–,≤ 10 nM,10 to 100 nM,≤ 10 nM,10 to 100 nM,–,"COc1ccccc1C(=O)NCc1ccc(-c2nn([C@H]3C=C[C@H](OC(C)=O)C3)c3ncnc(N)c23)cc1 [Example 35, [(1R,4R)-4-[4-amino-3-[4-[[(2-methoxybenzoyl)amino]methyl]phenyl]pyrazolo[3,4-d]pyrimidin-1-yl]cyclopent-2-en-1-yl] acetate]"
–,≤ 10 nM,100 to 1000 nM,≤ 10 nM,10 to 100 nM,2.2 nM,"COc1ccccc1C(=O)NCc1ccc(-c2nn([C@@H]3CC[C@H](O)C3)c3ncnc(N)c23)cc1 (relative stereo) [Example 24, N-[[4-[4-amino-1-[(1R*,3S*)-3-hydroxycyclopentyl]pyrazolo[3,4-d]pyrimidin-3-yl]phenyl]methyl]-2-methoxy-benzamide]"
–,≤ 10 nM,100 to 1000 nM,≤ 10 nM,10 to 100 nM,4 nM,"COc1ccccc1C(=O)NCc1ccc(-c2nn(C3CCCC3)c3ncnc(N)c23)cc1F [Example 66, N-[[4-(4-amino-1-cyclopentyl-pyrazolo[3,4-d]pyrimidin-3-yl)-2-fluoro-phenyl]methyl]-2-methoxy-benzamide]"
–,≤ 10 nM,1000 to 10000 nM,≤ 10 nM,100 to 1000 nM,–,"CCOc1ccccc1C(=O)NCc1ccc(-c2nn(C3CCCC3)c3ncnc(N)c23)cc1 [Example 7, N-[[4-(4-amino-1-cyclopentyl-pyrazolo[3,4-d]pyrimidin-3-yl)phenyl]methyl]-2-ethoxy-benzamide]"
–,10 to 100 nM,1000 to 10000 nM,10 to 100 nM,100 to 1000 nM,–,"COc1ccccc1C(=O)NCc1ccc(-c2nn(C3CCCO3)c3ncnc(N)c23)cc1 (stereo not drawn) [Example 5, N-[[4-(4-amino-1-tetrahydrofuran-2-yl-pyrazolo[3,4-d]pyrimidin-3-yl)phenyl]methyl]-2-methoxy-benzamide]"
–,≤ 10 nM,1000 to 10000 nM,≤ 10 nM,10 to 100 nM,–,"COc1ccc(C)cc1C(=O)NCc1ccc(-c2nn(C3CCCC3)c3ncnc(N)c23)cc1 [Example 12, N-[[4-(4-amino-1-cyclopentyl-pyrazolo[3,4-d]pyrimidin-3-yl)phenyl]methyl]-2-methoxy-5-methyl-benzamide]"
